Experimental data from US12291522B2, “Galectin-3 inhibitors” (BRISTOL-MYERS SQUIBB COMPANY, priority 2020, dated 2025).
Like-named read-outs stand apart in the source and are kept apart here.

Assays:
[1] = molecular target: His-tagged recombinant human Gal-3 (hGal-3) (Homo sapiens, UniProt P17931); experiment: Gal-3 HTRF assay (His-tagged hGal-3 / B-ASF); format: binding; conditions: 15 nM hGal-3, 15 nM B-ASF
Description: ASSAY BUFFER Composition: 25 mM HEPES, 100 mM NaCl, 0.005% Tween 20, 0.05% BSA prepared in sterile water (all reagents from Sigma).
• Positive Control: 100% DMSO (1 μL)+His-tagged hGal-3 (20 μL)+B-ASF (20 μL)+Anti-His Terbium Antibody (5 μL)+Strep d2 Antibody (5 μL). • Negative Control: 100% DMSO (1 μL)+His-tagged hGal-3 (20 μL)+Anti His Terbium Antibody (5 μL)+Strep d2 Aantibody (5 μL). Stocks Preparation:
PROTOCOL: The Gal-3 assays were performed in 384 white Opti plates in three replicates at room temperature with gentle shaking at 250-300 rpmFrom the original stocks, […] working stock concentrations of His-tagged recombinant human Gal-3 (hGal-3) and that of B-ASF were prepared. From the working stock, 20 μL of hGal-3 (15 nM) and 20 μL B-ASF (15 nM) were added to the plates. In Negative Control, only hGal-3 was added. A concentration range of 50× working stocks were prepared for the compounds in 100% DMSO. Aliquots of luL of the compounds were added to the wells and pre-incubated with 20 μL hGal-3 per well for 30 minutes Then 20 μL B-ASF wereadded and incubated for another 1 hour. To detect the signal, 5 μL (final conc. of 1.0 nM) terbium labelled Anti-His antibody was added and incubated for 30 min followed by adding 5 μL (final conc. of 20 nM) Streptavidin d2 and incubation for another 1 hour. The assay signal was detected using HTRF screen protocol (Excitation wavelength=340 nm, emission wavelength=615 nm/665 nm) on Envision 2104 Multilabel Reader. Data analysed using Toolset and Curve Master. Results are reported in the experimental section (IC50 in μM).

[2] = molecular target: T1, hCRBN (NanoLuc-CRBN fusion construct in HEK-293 cells) (Homo sapiens, UniProt Q96SW2); experiment: CRBN BRET Target Engagement; format: cell-based; conditions: NanoLuc-CRBN transfected HEK-293 cells, BRET with CRBN Probe
T1 construct: expressed in transfected cells; host or cells: HEK-293
T1 sequence (Q96SW2 whole entry, the tested form may be a part): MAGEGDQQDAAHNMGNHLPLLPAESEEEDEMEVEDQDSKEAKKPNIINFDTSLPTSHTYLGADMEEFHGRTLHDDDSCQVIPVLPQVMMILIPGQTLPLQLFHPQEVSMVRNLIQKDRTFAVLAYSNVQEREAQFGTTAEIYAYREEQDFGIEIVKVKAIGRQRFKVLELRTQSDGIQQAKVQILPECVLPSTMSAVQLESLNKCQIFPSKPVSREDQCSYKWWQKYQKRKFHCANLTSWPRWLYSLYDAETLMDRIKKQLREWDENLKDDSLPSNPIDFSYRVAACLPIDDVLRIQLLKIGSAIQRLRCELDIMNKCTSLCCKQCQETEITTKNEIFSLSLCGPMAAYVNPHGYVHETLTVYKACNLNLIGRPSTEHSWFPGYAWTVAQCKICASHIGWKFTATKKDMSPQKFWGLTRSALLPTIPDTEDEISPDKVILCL
Description: CRBN BRET Target Engagement (hCRBN IC50 (μM))
NanoLuc-CRBN fusion construct was transfected in HEK-293 cells using FuGENE HD (Promega) according to the manufacturer's protocol. In brief, Nluc-CRBN was diluted into Transfection Carrier DNA (Promega) 1:10 (mass/mass), to which FuGENE HD was 1:3 (μg DNA:μL FuGENE HD). One part (vol) of DNA:FuGENE HD complexes were combined with 20 parts (vol) of HEK-293 cells suspended at a density of […]. Cells were incubated for ˜20 hr at 37° C./5% CO2. Following transfection, cells were washed and resuspended at 200,000 cells/mL in OptiMEM without phenol red (Gibco).
For BRET measurements, cells were seeded in a 384-well nonbinding surface plate (Corning) plate for a final count of 10,000 cells/well. Compounds were dissolved at 10 mM in dimethylsulfoxide (DMSO) and evaluated at eleven concentrations using a high concentration of […]. CRBN Probe was used for equilibrium measurements, employing a final concentration of approximately EC50-80. For live-cell measurements, 20 nM of CRBN Probe was added. For the live-cell assay conditions, the plates were incubated for 2 hours at 37° C./5% CO2. NanoBRET NanoGlo Substrate and Extracellular Nanoluc Inhibitor (Promega) were added according to manufacturer's guidelines. For lytic cell measurements, digitonin was added to the cells to a final concentration of 50 μg/mL and 20 nM of CRBN Probe was added. To measure NanoBRET in permeabilized cells, extracellular Nluc inhibitor was omitted during the detection step. For all BRET experiments, the Envision 2015 (Perkin Elmer) equipped with a BRET2 Enh mirror, BRET 647 nM/75 nM Bandwidth and BC703 460 nM/80 nM Bandwidth filters was used for readouts. Each read was integrated for 0.5 s.
To determine compound potency (IC50), BRET ratios for each dilution series was first normalized to a % Inhibition value via Equation 1, where “S” represents Sample BRET, “B” represents Background BRET, and “T” represents Total BRET. In this equation, the background control (B) consists of NanoLuc-CRBN expressing cells and no CRBN Probe. The total BRET Ratio (T) consists of NanoLuc-CRBN expressing cells, CRBN Probe, and an amount of DMSO at a concentration equivalent to that added when testing compounds.
Following normalization, the percent inhibition values are plotted as a function of compound concentration and fit to Equation 2. […]

[3] = molecular target: T2, Gal3 (Human Galectin-3) in THP-1 cells (Homo sapiens, UniProt P17931); experiment: ELISA Gal3 Degradation Assay in THP-1 Cells; format: cell-based; conditions: 48 hours, culture media Gal3 by ELISA
T2 construct: host or cells: THP-1
T2 sequence (P17931 whole entry): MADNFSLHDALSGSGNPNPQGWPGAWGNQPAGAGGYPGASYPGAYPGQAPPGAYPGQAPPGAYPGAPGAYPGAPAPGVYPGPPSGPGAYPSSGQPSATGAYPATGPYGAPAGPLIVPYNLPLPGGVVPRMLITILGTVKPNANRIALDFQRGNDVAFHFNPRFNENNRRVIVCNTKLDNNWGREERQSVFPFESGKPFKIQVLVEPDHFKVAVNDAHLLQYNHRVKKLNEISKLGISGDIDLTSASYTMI
Description: [formula] ELISA Gal3 Degradation Assay in THP-1 Cells
THP-1 cells (ATCC, Cat #TIB-202), a human monocyte cell line derived from leukemia were plated at 2E6 cells/mL in 200 uL/well of RPMI 1640 (ThermoFisher, Cat #11835) in 96-well plates. Cells were treated with DMSO as a control and various concentrations of compounds for 48 hours. After the treatment, the culture media were collected. The PBS washed cell pellets were lysed in Lysis Buffer (Cell Signaling, Cat #9803) supplemented with 1XProtease Inhibitor Cocktail (Cell Signaling, Cat #5872). Gal3 levels in culture media and cell lysates were quantified by ELISA assays (Human Galectin-3 DuoSet ELISA kit, R&D Systems, Cat #DY1154) according to manufacturer's instructions. The cell culture media were also used for the assessment of cellular toxicity (LDH Assay kit, R&D Systems, DY994). The IC50 (degradation concentration at 50%) values were calculated based on the cellular Gal3 protein levels using DMSO as the control.

[4] = test 1, read-out: Supernatant (IC50) test 1
[5] = test 2, read-out: Supernatant (IC50) test 2

Chain of His-tagged recombinant human Gal-3 (hGal-3) (P17931 whole entry): as above

Structure (SMILES)	IC50 [1] [nM]	IC50 [2] [nM]	IC50 [3, 4] [nM]	IC50 [3, 5] [nM]
Cc1nc([C@@H]2O[C@H](CO)[C@H](O)[C@H](n3cc(-c4cc(F)c(Cl)c(F)c4)nn3)[C@H]2OCC(=O)NCCOCC(=O)Nc2ccc3c(c2)CN(C2CCC(=O)NC2=O)C3=O)n(-c2cc(Cl)ccc2C(F)(F)F)n1 (stereo partly drawn) [Example 1, 2-(((2S,3R,4S,5R,6R)-2-(1-(5-Chloro-2-(trifluoromethyl)phenyl)-3-methyl-1H-1,2,4-triazol-5-yl)-4-(4-(4-chloro-3,5-difluorophenyl)-1H-1,2,3-triazol-1-yl)-5-hydroxy-6-(hydroxymethyl)tetrahydro-2H-pyran-3-yl)oxy)-N-(2-(2-((2-(2,6-dioxopiperidin-3-yl)-1-oxoisoindolin-5-yl)amino)-2-oxoethoxy)ethyl)acetamide]	82	780	–	–
Cc1nc([C@@H]2O[C@H](CO)[C@H](O)[C@H](n3cc(-c4cc(F)c(Cl)c(F)c4)nn3)[C@H]2OCC(=O)NCc2ccc(C(=O)Nc3ccc4c(c3)CN(C3CCC(=O)NC3=O)C4=O)cc2)n(-c2cc(Cl)ccc2C(F)(F)F)n1 (stereo partly drawn) [Example 2, 4-((2-(((2S,3R,4S,5R,6R)-2-(1-(5-Chloro-2-(trifluoromethyl)phenyl)-3-methyl-1H-1,2,4-triazol-5-yl)-4-(4-(4-chloro-3,5-difluorophenyl)-1H-1,2,3-triazol-1-yl)-5-hydroxy-6-(hydroxymethyl)tetrahydro-2H-pyran-3-yl)oxy)acetamido)methyl)-N-(2-(2,6-dioxopiperidin-3-yl)-1-oxoisoindolin-5-yl)benzamide]	109	269	–	–
Cc1nc([C@@H]2O[C@H](CO)[C@H](O)[C@H](n3cc(-c4cc(F)c(Cl)c(F)c4)nn3)[C@H]2OCC(=O)N2CC(COc3ccc(C(=O)Nc4ccc5c(c4)CN(C4CCC(=O)N(C)C4=O)C5=O)cc3)C2)n(-c2cc(Cl)ccc2C(F)(F)F)n1 (stereo partly drawn) [Example 9, 4-((1-(2-(((2S,3R,4S,5R,6R)-2-(1-(5-Chloro-2-(trifluoromethyl)phenyl)-3-methyl-1H-1,2,4-triazol-5-yl)-4-(4-(4-chloro-3,5-difluorophenyl)-1H-1,2,3-triazol-1-yl)-5-hydroxy-6-(hydroxymethyl)tetrahydro-2H-pyran-3-yl)oxy)acetyl)azetidin-3-yl)methoxy)-N-(2-(1-methyl-2,6-dioxopiperidin-3-yl)-1-oxoisoindolin-5-yl)benzamide]	85	8950	–	–
Cc1nc([C@@H]2O[C@H](CO)[C@H](O)[C@H](n3cc(-c4cc(F)c(Cl)c(F)c4)nn3)[C@H]2OCC(=O)N[C@H]2C[C@H](Oc3ccc(C(=O)Nc4ccc5c(c4)CN(C4CCC(=O)NC4=O)C5=O)cc3)C2)n(-c2cc(Cl)ccc2C(F)(F)F)n1 (some centres unmarked) [Example 15]	420	380	–	–
Cc1nc([C@@H]2O[C@H](CO)[C@H](O)[C@H](n3cc(-c4cc(F)c(Cl)c(F)c4)nn3)[C@H]2OCC(=O)N[C@H]2C[C@H](Oc3ccc(C(=O)Nc4ccc5c(c4)CN(C4CCC(=O)N(C)C4=O)C5=O)cc3)C2)n(-c2cc(Cl)ccc2C(F)(F)F)n1 (some centres unmarked) [Example 17]	140	> 50000	–	–
Cc1nc([C@@H]2O[C@H](CO)[C@H](O)[C@H](n3cc(-c4cc(F)c(Cl)c(F)c4)nn3)[C@H]2OCC(=O)NCCOCC(=O)NCc2ccc(S(=O)(=O)Nc3ccc(C)c4c(C#N)c[nH]c34)cc2)n(-c2cc(Cl)ccc2C(F)(F)F)n1 [Example 22]	294	–	3400	3340
Cc1nc([C@@H]2O[C@H](CO)[C@H](O)[C@H](n3cc(-c4cc(F)c(Cl)c(F)c4)nn3)[C@H]2OCC(=O)N[C@H]2C[C@@H](Oc3ccc(C(=O)N[C@H](C(=O)N4C[C@H](O)C[C@H]4C(=O)NCc4ccc(-c5scnc5C)cc4)C(C)(C)C)nc3)C2)n(-c2cc(Cl)ccc2C(F)(F)F)n1 [Example 33]	1010	–	> 30000	> 30000

The next compounds have a lower IC50 [1] than those just listed; values first:

IC50 [1] [nM]	IC50 [2] [nM]	IC50 [3, 4] [nM]	IC50 [3, 5] [nM]	Structure (SMILES)
56	601	–	–	Cc1nc([C@@H]2O[C@H](CO)[C@H](O)[C@H](n3cc(-c4cc(F)c(Cl)c(F)c4)nn3)[C@H]2OCC(=O)N2CC(COc3ccc(C(=O)Nc4ccc5c(c4)CN(C4CCC(=O)NC4=O)C5=O)cc3)C2)n(-c2cc(Cl)ccc2C(F)(F)F)n1 (stereo partly drawn) [Example 7, 4-((1-(2-(((2S,3R,4S,5R,6R)-2-(1-(5-Chloro-2-(trifluoromethyl)phenyl)-3-methyl-1H-1,2,4-triazol-5-yl)-4-(4-(4-chloro-3,5-difluorophenyl)-1H-1,2,3-triazol-1-yl)-5-hydroxy-6-(hydroxymethyl)tetrahydro-2H-pyran-3-yl)oxy)acetyl)azetidin-3-yl)methoxy)-N-(2-(2,6-dioxopiperidin-3-yl)-1-oxoisoindolin-5-yl)benzamide]
20	520	–	–	Cc1nc([C@@H]2O[C@H](CO)[C@H](O)[C@H](n3cc(-c4cc(F)c(Cl)c(F)c4)nn3)[C@H]2OCC(=O)NCCOCCOCCNC(=O)COc2cccc3c2C(=O)N(C2CCC(=O)NC2=O)C3=O)n(-c2cc(Cl)ccc2C(F)(F)F)n1 (some centres unmarked) [Example 12]
66	810	–	–	Cc1nc([C@@H]2O[C@H](CO)[C@H](O)[C@H](n3cc(-c4cc(F)c(Cl)c(F)c4)nn3)[C@H]2OCC(=O)NCCOCCOCCOCCNC(=O)c2ccc3c(c2)C(=O)N(C2CCC(=O)NC2=O)C3=O)n(-c2cc(Cl)ccc2C(F)(F)F)n1 (some centres unmarked) [Example 13]
25	1500	–	–	Cc1nc([C@@H]2O[C@H](CO)[C@H](O)[C@H](n3cc(-c4cc(F)c(Cl)c(F)c4)nn3)[C@H]2OCC(=O)NCCOCCOCCNC(=O)c2ccc3c(c2)C(=O)N(C2CCC(=O)NC2=O)C3=O)n(-c2cc(Cl)ccc2C(F)(F)F)n1 (some centres unmarked) [Example 14]
69	> 50000	–	–	Cc1nc([C@@H]2O[C@H](CO)[C@H](O)[C@H](n3cc(-c4cc(F)c(Cl)c(F)c4)nn3)[C@H]2OCC(=O)NCCOCCOCCNC(=O)c2ccc3c(c2)C(=O)N(C2CCC(=O)N(C)C2=O)C3=O)n(-c2cc(Cl)ccc2C(F)(F)F)n1 (some centres unmarked) [Example 16]
50	–	51	42	Cc1nc([C@@H]2O[C@H](CO)[C@H](O)[C@H](n3cc(-c4cc(F)c(Cl)c(F)c4)nn3)[C@H]2OCC(=O)NCCOCC(=O)N[C@H](C(=O)N2C[C@H](O)C[C@H]2C(=O)NCc2ccc(-c3scnc3C)cc2)C(C)(C)C)n(-c2cc(Cl)ccc2C(F)(F)F)n1 [Example 20]
